From article PMC6934184, “Selective DNA-PKcs inhibition extends the therapeutic index of localized radiotherapy and chemotherapy” (The Journal of Clinical Investigation, 2019)

Biological target: T1, GRK7 (Homo sapiens, UniProt Q8WTQ7)
T1 construct: purchased Thermo Fisher Scientific (Life Technologies) SelectScreen
Experiment: SelectScreen Z'LYTE
Assay type: biochemical
Summary of the method: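 Percent values come from Thermo SelectScreen profiling of NU5455, combining activity and binding assays. CSF1R was run in Z'LYTE format at Km app ATP, and CAMK1 in Adapta format with ATP listed at 10.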

T1 sequence (Q8WTQ7 whole entry): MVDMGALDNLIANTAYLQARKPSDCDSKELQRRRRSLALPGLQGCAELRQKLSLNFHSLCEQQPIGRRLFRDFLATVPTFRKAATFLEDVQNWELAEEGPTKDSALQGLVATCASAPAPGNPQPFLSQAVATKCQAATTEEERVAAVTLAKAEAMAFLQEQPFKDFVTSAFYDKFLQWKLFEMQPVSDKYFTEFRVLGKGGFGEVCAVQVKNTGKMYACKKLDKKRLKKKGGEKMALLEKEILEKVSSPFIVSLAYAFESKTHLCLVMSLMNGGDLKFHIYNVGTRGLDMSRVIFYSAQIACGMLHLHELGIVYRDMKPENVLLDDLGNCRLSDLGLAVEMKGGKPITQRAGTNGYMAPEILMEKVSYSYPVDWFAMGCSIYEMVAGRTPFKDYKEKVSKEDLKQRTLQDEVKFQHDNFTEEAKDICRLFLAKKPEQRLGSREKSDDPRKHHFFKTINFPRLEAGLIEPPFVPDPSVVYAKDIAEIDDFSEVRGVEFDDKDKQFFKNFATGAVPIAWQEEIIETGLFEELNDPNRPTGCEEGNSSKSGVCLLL

For CN(C(=O)CN1CCOCC1)c1ccc2sc3c(-c4cccc5c(=O)cc(N6CC7CCC(C6)O7)oc45)cccc3c2c1 [NU5455], the inhibition at 1 µM was -3%.
